test system: B16 F10 melanoma cells; test: inhibition of pulmonary metastases in C57 mice after pretreatment of B16 F10 melanoma cells with test compound in culture; format: in vivo, C57 male mice; settings: Mus musculus, B16-F10, 360 h; cells pretreated 48 hours with 1 μg/ml; pulmonary foci counted fifteen days after i.v. inoculation; read-out: per cent inhibition of metastases
Description: The lungs provide a convenient organ for the study of metastasis in the animal body.
A single suspension of B16 F10 melanoma cells was prepared from a 14 day old maintenance tumor excised from a C57 male mouse. The tumor was minced and trypsinized followed by dissociation of the cells in minimal essential medium (MEM) with fetal calf serum (FCS) by repeated pipetting. The preparation was passed through a sterile gauze pad, centrifuged, and the cell pellet washed in minimal essential medium without fetal calf serum. A trypan blue wet mount was made to determine the percent of viable cells.
The cells were then plated in 100 mm petri dishes at 0.5×10^6 viable cells/10 ml minimal essential medium with fetal calf serum and incubated at 37° C. for 24 to 48 hours. After incubation, the medium was aspirated and 10 ml of the test compounds at the concentrations of 1 μg or 10 μg/ml MEM with FCS was added. After 24 hours incubation, the medium was aspirated and 10 ml of fresh test compound-medium preparation was added.
Test compounds were dissolved in water or dimethyl sulfoxide and then diluted to the testing concentrations with medium. Control plates receive only medium and/or medium containing dimethyl sulfoxide.
After a total of 48 hours incubation, the testing medium was aspirated, the cells trypsinized and suspended in MEM with FCS. The cells were washed in MEM without FCS and resuspended at the concentration of 10×10^5 cells/ml of MEM without FCS.
C57 male mice weighing 20-25 grams (Charles River) were inoculated intravenously via the tail vein with 2×10^5 cells per 0.2 ml MEM without FCS/mouse. Fifteen days after inoculation, the animals were sacrificed by carbon dioxide inhalation and the lungs were removed and placed in formalin solution. The number of pulmonary foci per animal lung was counted (after separating the lobes) under a lighted dissecting lens.
Data can be expressed as the mean number of foci±S.E. per control and treatment groups. Treatment group data is also expressed as a percent of control and percent of inhibition (100% minus % of control). When the procedure described above was carried out on the castanospermine esters listed below, the per cent inhibition of metastases observed [at the dose, in micrograms per milliliter (μg/ml), given in parentheses] was as follows: […]

Row | Compound | inhibition in vivo at 1 µg/mL [%]
1 | O=C(O[C@H]1CN2CC[C@H](O)[C@@H]2[C@@H](O)[C@@H]1O)c1ccco1 [[1S-(1α,6β,7α,8β,8aβ)]-Octahydro-1,6,7,8-indolizinetetrol 6-(2-furancarboxylate)] | 51
2 | Cc1cccc(C(=O)O[C@H]2CN3CC[C@H](O)[C@@H]3[C@@H](O)[C@@H]2O)c1 [[1S-(1α,6β,7α,8β,8aβ)]-Octahydro-1,6,7,8-indolizinetetrol 6-(3-methylbenzoate)] | 78
3 | COc1ccc(C(=O)O[C@H]2CN3CC[C@H](O)[C@@H]3[C@@H](O)[C@@H]2O)cc1 [[1S-(1α,6β,7α,8β,8aβ)]-octahydro-1,6,7,8-indolizinetetrol 6-(4-methoxybenzoate)] | 19
4 | CC(=O)O[C@H]1CN2CC[C@H](O)[C@@H]2[C@@H](O)[C@@H]1O [[1S-(1α,6β,7α,8β,8aβ)]-octahydro-1,6,7,8-indolizinetetrol 6-acetate] | > 50
5 | O=C(O[C@H]1CN2CC[C@H](O)[C@@H]2[C@@H](O)[C@@H]1O)c1ccccc1 [[1S-(1α,6β,7α,8β,8aβ)]-octahydro-1,6,7,8-indolizinetetrol 6-benzoate] | 35
6 | Cc1ccc(C(=O)O[C@H]2[C@H](O)[C@H]3[C@@H](O)CCN3C[C@@H]2O)cc1 [[1S-(1α,6β,7α,8β,8aβ)]-octahydro-1,6,7,8-indolizinetetrol 7-(4-methylbenzoate)] | 65
7 | O=C(O[C@H]1[C@H](O)[C@H]2[C@@H](O)CCN2C[C@@H]1O)c1ccccc1 [[1S-(1α,6β,7α,8β,8aβ)]-octahydro-1,6,7,8-indolizinetetrol 7-benzoate] | 23
8 | CCC(=O)O[C@H]1[C@H](O)[C@H]2[C@@H](O)CCN2C[C@@H]1O [[1S-(1α,6β,7α,8β,8aβ)]-octahydro-1,6,7,8-indolizinetetrol 7-propionate] | 36

same assay, conditions: Mus musculus, B16-F10, 360 h; cells pretreated 48 hours with 10 μg/ml; pulmonary foci counted fifteen days after i.v. inoculation; read-out: per cent inhibition of metastases

Row | Compound | inhibition in vivo at 10 µg/mL [%]
9 | Cc1ccccc1C(=O)O[C@H]1CN2CC[C@H](O)[C@@H]2[C@@H](O)[C@@H]1O [[1S-(1α,6β,7α,8β,8aβ)]-Octahydro-1,6,7,8-indolizinetetrol 6-(2-methylbenzoate)] | 71
10 | Cc1ccc(C(=O)O[C@H]2CN3CC[C@H](O)[C@@H]3[C@@H](O)[C@@H]2O)cc1 [[1S-(1α,6β,7α,8β,8aβ)]-octahydro-1,6,7,8-indolizinetetrol 6-(4-methylbenzoate)] | 75
11 | CCCC(=O)O[C@H]1CN2CC[C@H](O)[C@@H]2[C@@H](O)[C@@H]1O [[1S-(1α,6β,7α,8β,8aβ)]-octahydro-1,6,7,8-indolizinetetrol 6-butanoate] | 13

test system: B16 melanoma F10 line cells; test: inhibition of metastatic foci in the lungs of C57/BL mice injected i.v. with B16 melanoma F10 line cells, test compound given i.p.; format: in vivo; settings: 100 mg/kg, i.p. daily from day 1-15; metastatic foci in the lungs vs. controls
Description: In another experiment, 1×10^5 viable B16 melanoma F10 line cells were injected i.v. through the tail vein of C57/BL mice. Test compound was then administered at 100 mg/kg, i.p. daily from day 1-15. At the end of 15 days, the animals were sacrificed and the number of metastatic foci in the lungs were quantitated and compared to controls run simultaneously.

Row | Compound | % INHIBITION of metastasis [%]
12 | O=C(O[C@H]1CN2CC[C@H](O)[C@@H]2[C@@H](O)[C@@H]1O)c1ccco1 [[1S-(1α,6β,7α,8β,8aβ)]-Octahydro-1,6,7,8-indolizinetetrol 6-(2-furancarboxylate)] | 40
13 | Cc1ccc(C(=O)O[C@H]2CN3CC[C@H](O)[C@@H]3[C@@H](O)[C@@H]2O)cc1 [[1S-(1α,6β,7α,8β,8aβ)]-octahydro-1,6,7,8-indolizinetetrol 6-(4-methylbenzoate)] | 71
14 | O=C(O[C@H]1CN2CC[C@H](O)[C@@H]2[C@@H](O)[C@@H]1O)c1ccccc1 [[1S-(1α,6β,7α,8β,8aβ)]-octahydro-1,6,7,8-indolizinetetrol 6-benzoate] | 66

test system: experimental metastasis; test: not given; settings: mice; Cancer Research, 46, 5215 (1986); cited from earlier work

Row | Compound | inhibition of experimental metastasis
15 | O[C@H]1[C@H](O)[C@@H](O)CN2CC[C@H](O)[C@H]12 [castanospermine, (1S,6S,7R,8R,8aR)-1,6,7,8-tetrahydroxyindolizidine] | inhibition of experimental metastasis
